In assay [1] the target is PTGER2 (EP2) (Homo sapiens (Human), UniProt P43116). The assay can be described thus: hEP2 b-arrestin assay (PathHunter HEK 293 PTGER2 b-arrestin cells). It is filed as cell-based. The settings on record: hEP2 b-arrestin assay (values without asterisk). The essentials:
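HEK293 cells expressing ProLink-tagged EP2 and EA-fused β-arrestin 2 (enzyme fragment complementation) were seeded 24 h, pre-incubated with compound 15 min at 37 °C, then stimulated with 5 μM PGE2 (final) for 120 min.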

In assay [2] the target is PTRGER4 (EP4) (Homo sapiens (Human), UniProt P35408). The assay can be described thus: hEP4 b-arrestin assay (PathHunter HEK 293 PTGER4 b-arrestin cells). The format is cell-based. The note with it: hEP4 b-arrestin assay (values without asterisk). The gist of the method:
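Stably transfected HEK293 cells carrying EP4–ProLink and β-arrestin 2–EA (β-gal fragment complementation), pre-incubated with compound 15 min at 37 °C, then stimulated with PGE2 (20 nM final) for 120 min at 37 °C. Chemiluminescence read after 1 h detection reagent at room temperature; activity per concentration expressed as percent of DMSO control.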

For 27 compounds, IC50 results are on record in patent publication US12011444B2, “N-substituted indole derivatives as PGE2 receptor modulators” (Idorsia Pharmaceuticals Ltd, priority 2015, dated 2024).

Chain of PTGER2 (EP2) (P43116 whole entry, the tested form may be a part): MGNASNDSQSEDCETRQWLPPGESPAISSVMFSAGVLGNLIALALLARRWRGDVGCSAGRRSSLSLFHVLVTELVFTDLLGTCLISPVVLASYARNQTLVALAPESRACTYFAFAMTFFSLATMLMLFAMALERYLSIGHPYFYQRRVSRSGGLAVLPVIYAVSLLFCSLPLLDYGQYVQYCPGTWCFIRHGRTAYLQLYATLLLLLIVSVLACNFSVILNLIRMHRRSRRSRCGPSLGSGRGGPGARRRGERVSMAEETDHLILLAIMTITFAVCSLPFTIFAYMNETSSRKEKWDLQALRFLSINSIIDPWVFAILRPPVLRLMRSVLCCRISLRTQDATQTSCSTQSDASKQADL
Chain of PTRGER4 (EP4) (P35408 whole entry, looked up, the tested form may be a part): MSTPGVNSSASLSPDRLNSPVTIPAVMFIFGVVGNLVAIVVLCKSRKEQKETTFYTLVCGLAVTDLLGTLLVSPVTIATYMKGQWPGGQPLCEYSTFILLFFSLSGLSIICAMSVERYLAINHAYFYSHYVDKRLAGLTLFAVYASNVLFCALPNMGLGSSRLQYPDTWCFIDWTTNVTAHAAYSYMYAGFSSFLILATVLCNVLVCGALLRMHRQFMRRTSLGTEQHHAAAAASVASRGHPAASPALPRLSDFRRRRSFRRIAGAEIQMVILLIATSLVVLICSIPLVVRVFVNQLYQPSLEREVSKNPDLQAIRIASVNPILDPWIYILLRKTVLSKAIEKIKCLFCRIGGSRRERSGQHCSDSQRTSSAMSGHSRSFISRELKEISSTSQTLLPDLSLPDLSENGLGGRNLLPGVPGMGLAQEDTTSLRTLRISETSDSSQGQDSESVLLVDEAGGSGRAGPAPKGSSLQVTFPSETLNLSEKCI

For the compound `N#Cc1cc2cccc(F)c2n1CCNc1cc(-c2cc(C(F)(F)F)c(C(=O)O)s2)ncn1` [Example 859, 5-{6-[2-(2-Cyano-7-fluoro-indol-1-yl)-ethylamino]-pyrimidin-4-yl}-3-trifluoromethyl-thiophene-2-carboxylic acid], the IC50 (usually the point on the concentration scale where inhibition reaches its midpoint) in assay [1] came to 6 nM; in assay [2], 60 nM.
For `COc1ccc(F)c2c1cc(C#N)n2CCNc1cc(-c2ccc(C3(OC)COC3)s2)ncn1` [Example 860, 7-Fluoro-4-methoxy-1-(2-{6-[5-(3-methoxy-oxetan-3-yl)-thiophen-2-yl]-pyrimidin-4-ylamino}-ethyl)-1H-indole-2-carbonitrile] the same measures were 421 nM and 121 nM.
The like results for `CCOc1cc(-c2cc(NCCn3c(C#N)cc4c(OC)ccc(F)c43)ncn2)ccc1NCC(=O)O` [Example 861, (4-{6-[2-(2-Cyano-7-fluoro-4-methoxy-indol-1-yl)-ethylamino]-pyrimidin-4-yl}-2-ethoxy-phenylamino)-acetic acid] were, in that order, 5 nM and 2 nM.
`COc1ccc(F)c2c1cc(C#N)n2CCNc1cc(-c2ccc(-c3c[nH]c(C4CC4)n3)cc2)ncn1` [Example 863, 1-(2-{6-[4-(2-Cyclopropyl-1H-imidazol-4-yl)-phenyl]-pyrimidin-4-ylamino}-ethyl)-7-fluoro-4-methoxy-1H-indole-2-carbonitrile]: the IC50 in assay [1] worked out at 5 nM; in assay [2], 3 nM.
The like results for `CCOc1cc(-c2cc(NCCn3c(C)cc4c(OC)cc(Cl)c(F)c43)ncn2)sc1C(=O)O` [Example 864, 5-{6-[2-(6-Chloro-7-fluoro-4-methoxy-2-methyl-indol-1-yl)-ethylamino]-pyrimidin-4-yl}-3-ethoxy-thiophene-2-carboxylic acid] were, in that order, 3 nM and 5 nM.
For `CCOc1cc(-c2cc(NCCn3c(C#N)cc4c(OC)cccc43)ncn2)ccc1NCC(=O)O` [Example 865, (4-{6-[2-(2-Cyano-4-methoxy-indol-1-yl)-ethylamino]-pyrimidin-4-yl}-2-ethoxy-phenylamino)-acetic acid] the same measures were 7 nM and 5 nM.
For `COc1ccc(F)c2c1cc(C#N)n2CCNc1cc(-c2ccc(O)c(OC(F)(F)F)c2)ncn1` [Example 866, 7-Fluoro-1-{2-[6-(4-hydroxy-3-trifluoromethoxy-phenyl)-pyrimidin-4-ylamino]-ethyl}-4-methoxy-1H-indole-2-carbonitrile] the same measures were 8 nM and 5 nM.
For the compound `COc1ccc(F)c2c1cc(C#N)n2CCNc1cc(-c2ccc(O)c(Cl)c2)ncn1` [Example 867, 1-{2-[6-(3-Chloro-4-hydroxy-phenyl)-pyrimidin-4-ylamino]-ethyl}-7-fluoro-4-methoxy-1H-indole-2-carbonitrile], the values for the IC50 in assay [1] and in assay [2] were 8 nM and 6 nM, respectively.
For `CCOc1cc(-c2cc(NCCn3c(C)cc4c(Cl)cc(Cl)c(F)c43)ncn2)sc1C(=O)O` [Example 868, 5-{6-[2-(4,6-Dichloro-7-fluoro-2-methyl-indol-1-yl)-ethylamino]-pyrimidin-4-yl}-3-ethoxy-thiophene-2-carboxylic acid] the same measures were 1 nM and 7 nM.
Take `COc1cc(Cl)cc2c1cc(C)n2CCNc1cc(-c2cc(OC(C)C)c(C(=O)O)s2)ncn1` [Example 869, 5-{6-[2-(6-Chloro-4-methoxy-2-methyl-indol-1-yl)-ethylamino]-pyrimidin-4-yl}-3-isopropoxy-thiophene-2-carboxylic acid]: the IC50 in assay [1] is 2 nM; in assay [2], 8 nM.
For `CCOc1cc(-c2cc(NCCn3c(C#N)cc4c(OC)cccc43)ncn2)ccc1OCC(=O)O` [Example 870, (4-{6-[2-(2-Cyano-4-methoxy-indol-1-yl)-ethylamino]-pyrimidin-4-yl}-2-ethoxy-phenoxy)-acetic acid] the same measures were 8 nM and 12 nM.
The like results for `CCOc1cc(-c2cc(NCCn3c(C)cc4c(OC)cc(Cl)cc43)ncn2)sc1C(=O)O` [Example 871, 5-{6-[2-(6-Chloro-4-methoxy-2-methyl-indol-1-yl)-ethylamino]-pyrimidin-4-yl}-3-ethoxy-thiophene-2-carboxylic acid] were, in that order, 2 nM and 16 nM.
For `CCCCOc1cc(-c2cc(NCCn3c(C#N)cc4c(OC)ccc(F)c43)ncn2)ccc1C(=O)O` [Example 872, 2-Butoxy-4-{6-[2-(2-cyano-7-fluoro-4-methoxy-indol-1-yl)-ethylamino]-pyrimidin-4-yl}-benzoic acid] the same measures were 12 nM and 18 nM.
As to `CCOc1cc(-c2cc(NCCn3c(C#N)cc4c(OC)ccc(F)c43)ncn2)ccc1CC(=O)O` [Example 873, (4-{6-[2-(2-Cyano-7-fluoro-4-methoxy-indol-1-yl)-ethylamino]-pyrimidin-4-yl}-2-ethoxy-phenyl)-acetic acid], the IC50 came out at 77 nM in assay [1] and 18 nM in assay [2].
The like results for `COc1ccc(F)c2c1cc(C)n2CCNc1cc(-c2ccc(O)c(OC(F)(F)F)c2)ncn1` [Example 874, 4-{6-[2-(7-Fluoro-4-methoxy-2-methyl-indol-1-yl)-ethylamino]-pyrimidin-4-yl}-2-trifluoromethoxy-phenol] were, in that order, 4 nM and 19 nM.
For `CCOc1cc(-c2cc(NCCn3c(C)c(F)c4ccccc43)ncn2)sc1C(=O)O` [Example 875, 3-Ethoxy-5-{6-[2-(3-fluoro-2-methyl-indol-1-yl)-ethylamino]-pyrimidin-4-yl}-thiophene-2-carboxylic acid], the IC50 in assay [1] came to 4 nM; in assay [2], 26 nM.
For `CCOc1cc(-c2cc(NCCn3c(C#N)c(F)c4ccccc43)ncn2)sc1C(=O)O` [Example 876, 5-{6-[2-(2-Cyano-3-fluoro-indol-1-yl)-ethylamino]-pyrimidin-4-yl}-3-ethoxy-thiophene-2-carboxylic acid] the same measures were 4 nM and 32 nM.
On to `CCOc1cc(-c2cc(NCCn3c(C)cc4c(C)ccc(F)c43)ncn2)ccc1NCC(=O)O` [Example 877, (2-Ethoxy-4-{6-[2-(7-fluoro-2,4-dimethyl-indol-1-yl)-ethylamino]-pyrimidin-4-yl}-phenylamino)-acetic acid], for which the IC50 in assay [1] worked out at 5 nM; in assay [2], 34 nM.
Turning to `CCCCOc1cc(-c2cc(NCCn3c(C)cc4c(OC)cc(F)c(F)c43)ncn2)ccc1C(=O)O` [Example 878, 2-Butoxy-4-{6-[2-(6,7-difluoro-4-methoxy-2-methyl-indol-1-yl)-ethylamino]-pyrimidin-4-yl}-benzoic acid], the figures for the IC50 in assay [1] and in assay [2] were 1 nM and 22 nM, respectively.
The like results for `Cc1cccc2c1cc(C)n2CCNc1cc(-c2cc(OC(C)C)c(C(=O)O)s2)ncn1` [Example 879, 5-{6-[2-(2,4-Dimethyl-indol-1-yl)-ethylamino]-pyrimidin-4-yl}-3-isopropoxy-thiophene-2-carboxylic acid] were, in that order, 4 nM and 36 nM.
The like results for `CCOc1cc(-c2cc(NCCn3c(C)cc4c(OC)cccc43)ncn2)ccc1-c1noc(=O)[nH]1` [Example 881, 3-(2-Ethoxy-4-{6-[2-(4-methoxy-2-methyl-indol-1-yl)-ethylamino]-pyrimidin-4-yl}-phenyl)-[1,2,4]oxadiazol-5(4H)-one] were, in that order, 5 nM and 41 nM.
The like results for `CCOc1cc(-c2cc(NCCn3c(C)cc4c(OC)cc(F)cc43)ncn2)ccc1NCC(=O)O` [Example 882, (2-Ethoxy-4-{6-[2-(6-fluoro-4-methoxy-2-methyl-indol-1-yl)-ethylamino]-pyrimidin-4-yl}-phenylamino)-acetic acid] were, in that order, 11 nM and 55 nM.
Consider `CCOc1cc(-c2cc(NCCn3c(C)cc4c(Cl)c(F)cc(Cl)c43)ncn2)sc1C(=O)O` [Example 883, 5-{6-[2-(4,7-Dichloro-5-fluoro-2-methyl-indol-1-yl)-ethylamino]-pyrimidin-4-yl}-3-ethoxy-thiophene-2-carboxylic acid], for which the figures for the IC50 in assay [1] and in assay [2] were 7 nM and 63 nM, respectively.
The like results for `CCCCOc1cc(-c2cc(NCCn3c(C)cc4c(OC)cc(Cl)c(F)c43)ncn2)ccc1C(=O)O` [Example 884, 2-Butoxy-4-{6-[2-(6-chloro-7-fluoro-4-methoxy-2-methyl-indol-1-yl)-ethylamino]-pyrimidin-4-yl}benzoic acid] were, in that order, 10 nM and 84 nM.
For `CCOc1cc(-c2cc(NCCn3c(C)cc4c(OC)c(F)cc(Cl)c43)ncn2)sc1C(=O)O` [Example 885, 5-{6-[2-(7-Chloro-5-fluoro-4-methoxy-2-methyl-indol-1-yl)-ethylamino]-pyrimidin-4-yl}-3-ethoxy-thiophene-2-carboxylic acid] the same measures were 40 nM and 89 nM.
For `COc1cc(-c2cc(NCCn3c(C)cc4c(OC)ccc(F)c43)ncn2)ccc1CC(=O)O` [Example 886, (4-{6-[2-(7-Fluoro-4-methoxy-2-methyl-indol-1-yl)-ethylamino]-pyrimidin-4-yl}-2-methoxy-phenyl)-acetic acid] the same measures were 42 nM and 125 nM.
On to `COc1ccc(F)c2c1cc(C#N)n2CCNc1cc(-c2ccc(C(F)(F)C(=O)O)cc2)ncn1` [Example 887, (4-{6-[2-(2-Cyano-7-fluoro-4-methoxy-indol-1-yl)-ethylamino]-pyrimidin-4-yl}-phenyl)-difluoro-acetic acid], for which the results for the IC50 in assay [1] and in assay [2] were 89 nM and 177 nM, respectively.
